According to patent publication US20100240065A1, “Prolyl Hydroxylase Compositions and Methods of Use Thereof” (Boehringer Ingelheim International GmbH, priority 2009, published 2010):
Like-named read-outs stand apart in the source and are kept apart here. Blank lines part the entries; values can stand above or below the molecule they belong to.

Legend:
[1] = system: recombinant rhesus HPH protein; assay: HPH enzyme activity assay, effect of cofactors and metal ions (isoform not given); assay type: biochemical, rhesus (Macaca mulatta)
rhesus HPH3 = target: T1, rhesus HPH3 (Macaca mulatta, UniProt H9FPE4); assay: HPH enzyme TR-FRET assay (VBC-recognition of hydroxylated HIF peptide), HPH3; assay type: biochemical; conditions: inhibitory activity against rhesus HPH3
T1 construct: fused on or other part: C-terminal GST tag used for purification and removed with thrombin before the assay

rhesus HPH1 = rhesus HPH1 (Macaca mulatta, UniProt I2CX88); assay: biochemical
rhesus HPH1, sequence (I2CX88 1-426): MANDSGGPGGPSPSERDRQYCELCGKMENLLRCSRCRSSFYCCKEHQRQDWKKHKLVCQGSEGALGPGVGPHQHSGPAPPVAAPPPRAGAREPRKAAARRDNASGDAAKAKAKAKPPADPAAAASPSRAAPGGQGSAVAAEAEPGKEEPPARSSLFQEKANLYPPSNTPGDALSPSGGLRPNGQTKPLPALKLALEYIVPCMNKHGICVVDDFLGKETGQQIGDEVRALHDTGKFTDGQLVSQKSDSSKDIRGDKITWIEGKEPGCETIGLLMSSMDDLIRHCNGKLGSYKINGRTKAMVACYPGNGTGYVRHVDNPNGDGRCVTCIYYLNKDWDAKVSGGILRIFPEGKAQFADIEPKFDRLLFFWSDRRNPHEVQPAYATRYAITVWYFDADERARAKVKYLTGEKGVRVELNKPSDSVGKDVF
Experimental: (§1) The VBC protein complex was generated by co-expression of Glutathione S-Transferase-VHL (von Hippel Lindau), elongin B and elongin C in Escherichia coli followed by purification of the complex using glutathione affinity resin and size-exclusion chromatography. The HPH enzyme assay is conducted in the well of a 96- or 384-well plate. […] The time-resolved fluorescent signal (excitation at 330 nm; emission at 620 and 665 nm) is read on a plate reader after 1 h of incubation. The ratio of signal at 665 nm to 620 nm is used to calculate the amount of peptide interaction with GST-VBC as a measure of protein hydroxylation.
(§2) The activity of the HPH proteins was measured using an assay dependent upon VBC-recognition of a hydroxylated peptide. The VBC protein complex was generated by co-expression of Glutathione S-Transferase-VHL (von Hippel Lindau), elongin B and elongin C in Escherichia coli followed by purification of the complex using glutathione affinity resin and size-exclusion chromatography. The HPH enzyme assay is conducted in the well of a 96- or 384-well plate. […] The ratio of signal at 665 nm to 620 nm is used to calculate the amount of peptide interaction with GST-VBC as a measure of protein hydroxylation.

rhesus HPH2 = rhesus HPH2 (Macaca mulatta, UniProt I2CX88); conditions: read-out: IC50 HPH2; inhibitory activity against rhesus HPH2
rhesus HPH2, sequence (I2CX88 1-426): as above
Experimental: as §1, §2

Structure (SMILES): [Fe+2] [ferrous iron]
- effect of addition on enzyme activity ([1]; recombinant rhesus HPH, isoform not stated): increased the activity of the enzyme

Structure (SMILES): [Cl-].[Cl-].[Co+2] [CoCl2]
- effect of addition on enzyme activity [1]: inhibited enzyme activity

- IC50 (rhesus HPH3): 0.66 µM
Structure (SMILES): O=C(O)CNC(=O)C(=O)O [N-oxalylglycine]

Structure (SMILES): NNc1nncc2ccccc12 [Hydralazine]
- IC50 (rhesus HPH3): 54 µM
- IC50 (rhesus HPH1): 400 µM

Structure (SMILES): O=C(O)CCC(=O)O [Succinate]
- IC50 (rhesus HPH2): 380 µM
- IC50 (rhesus HPH3): 80 µM
- IC50 (rhesus HPH1; read-out: IC50 HPH1, inhibitory activity against rhesus HPH1): 200 µM
